From article PMC7060351, “Biochemical features of the novel Tail Tubular Protein A of Yersinia phage phiYeO3-12” (Scientific Reports, 2020)

What was measured:
TTPAgp11 [1] = biological target: T1, TTPAgp11 (Yersinia phage phiYeO3-12, UniProt Q9T106); assay: backreflection light scattering during nanoDSF melting scan (aggregation); format: binding; settings: 0.25 mg/ml protein, 0.15 mg/ml sugar; 2 °C/min from 20 to 95 °C; no unfolding Tm obtained (NA); no scattering transition for protein alone (NA)
T1 construct: gene 11
T1 sequence (Q9T106 1-196): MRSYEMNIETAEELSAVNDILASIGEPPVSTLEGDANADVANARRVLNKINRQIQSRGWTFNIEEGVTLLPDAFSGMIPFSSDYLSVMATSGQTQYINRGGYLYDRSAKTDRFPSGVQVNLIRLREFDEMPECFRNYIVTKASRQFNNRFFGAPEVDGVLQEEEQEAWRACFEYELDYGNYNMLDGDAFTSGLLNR
Text: backreflection light scattering during nanoDSF melting scan (aggregation) on TTPAgp11

TTPAgp11 [2] = biological target: T1, TTPAgp11; assay: GC of released glucose after MTBSTFA derivatisation; format: biochemical; settings: PBS, room temperature, 24 h; 20 µl of 47 µM protein, 100 µl of 1 mg/ml maltose in 0.2 ml
TTPAgp11 [3] = biological target: T1, TTPAgp11; assay: nanoDSF thermal unfolding ([…] nm ratio); format: binding; settings: 0.25 mg/ml protein, 0.15 mg/ml sugar; 2 °C/min from 20 to 95 °C; protein alone Tm 53.27 °C; inverted unfolding profile, aggregation

Row | Structure (SMILES) | Tm / Scattering / [°C] (TTPAgp11 [1]) | % of maltose hydrolyzed (TTPAgp11 [2]) | Tm / Fluorescence ratio 350 nm/330 nm / [°C] (TTPAgp11 [3])
1 | OC[C@H]1O[C@H](O[C@H]2[C@H](O)[C@@H](O)C(O)O[C@@H]2CO)[C@H](O)[C@@H](O)[C@@H]1O (stereo partly drawn) [maltose] | 36.26 °C | 15–18% | –
2 | CC(=O)N[C@H]1C(O)O[C@H](CO)[C@@H](O)[C@@H]1O (stereo partly drawn) [N-acetylglucosamine] | – | – | 36.41 °C
